Assay results: patent US20060084790A1, “P-Rex1, a ptdins (3,4,5) p3-g-beta-gamma-regulated guanine-nucleotide exchange factor for rac” (The Babraham Institute, priority 2002, published 2006)

Columns and labels:
[1] = molecular target: T1, recombinant human P-Rex1 (Homo sapiens, UniProt Q8TCU6, A1118T/K1340E); experiment: Rac-GEF assay for recombinant P-Rex1 ([35S]-GTPγS loading of EE-Rac1, liposomes); format: biochemical
T1 construct: made in house; host or cells: Sf9 cells (baculovirus, pAc0G1 vector)
Method: Liposomes (phosphatidylcholine (PtdCho), phosphatidylserine (PtdS), phosphatidylinositol (PtdIns), final assay concentration 200 μM each) were sonicated in lipid buffer (20 mM Hepes/NaOH pH 7.5 (4° C.), 100 mM NaCl, 1 mM EGTA) with or without PtdIns(3,4,5)P3 (final assay concentration 10 μM) and incubated for 10 min on ice with 2 μl of purified, GDP-loaded, recombinant, lipid-modified EE-Rac1 in 5 mM MgCl2, 50 mg/ml BSA, 5 mM DTT, 20 mM Hepes/NaOH pH 7.5 (4° C.), 100 mM NaCl, 1 mM EGTA (final assay concentration 100 nM EE-Rac1, 0.0024% cholate). Then 4 μl of Rac-GEF activity (cytosol, column fractions, or recombinant P-Rex1) was added, followed by 2 μl of GTPγS (in lipid buffer, final assay concentration 5 μM, including 1 μCi [^35S]-GTPγS). After 10 min at 30° C., the reaction was stopped and EE-Rac1 pulled down using anti-EE antibodies coupled to protein G-sepharose, and [^35S]-GTPγS-loading of Rac was detected by scintillation β-counting. Recombinant P-Rex1 was diluted in ‘buffer A’ (20 mM Hepes/NaOH pH 7.5 (4° C.), 1% betaine, 0.01% Na azide, 0.5 mM EGTA, 200 mM KCl, 10% ethylene glycol) to a final assay concentration of 50 nM. In assays with Gβγ, 2 μl of Gβγ in ‘buffer A’ were added to the liposome/Rac mix before the 10 min on ice, and P-Rex1 was added as 5×.

[2] = system: P-Rex1; experiment: Surface plasmon resonance (Biacore) binding of P-Rex1 to phospholipid vesicles; parameters: species or system human; details: 6 mol-% phosphoinositide; 100 nM P-Rex1; FIG. 5C
Method: Assays were conducted as described (Ellson et al. 2001), using mixed phospholipid vesicles (PtdCho, PtdS, phosphatidylethanolamine (PtdE), 330 μM each final concentration) with or without added phosphoinositides (6 mol-% final concentration) to load the L1 vesicle capture chip (Biacore) prior to the injection of 100 nM purified recombinant Sf9-cell derived P-Rex1.

[3] = Protein phosphatase assay with para-nitrophenolphosphate; format: biochemical; details: P-Rex1 up to 192 nM
Source text: We also used para-nitrophenolphosphate as a broad-spectrum substrate in a protein phosphatase assay, using calf intestinal alkaline phosphatase and MEG-2 tyrosine phosphatase as controls.

[4] = Inositol polyphosphate 4-phosphatase (lipid phosphatase) assay; format: biochemical; details: P-Rex1 up to 1.45 μM
[5] = system: PAE cells; experiment: Immunofluorescence microscopy of lamellipodia formation in myc-P-Rex1 transfected PAE cells; format: cell-based, pig
Method: Pig aortic endothelial (PAE) cells were transiently transfected with pCMV3-myc-P-Rex1 or pCMV3-myc-DAPP1 by electroporation, grown on coverslips for 10 h and then serum starved for 8 h. They were then treated or not with 100 nM wortmannin for 10 min followed by stimulation with varying doses of PDGF for 5 min. Cells were fixed and prepared for immunofluorescence microscopy by staining of P-Rex1 and DAPP1 with anti-myc epitope-tag primary and FITC-goat anti-mouse secondary antibodies and filamentuous actin with TRITC-phalloidin as previously described (Welch et al. 1998).

[6] = system: EE-Rac1; experiment: Rac-GEF assay with neutrophil cytosol and membrane fractions; format: biochemical; details: PtdIns(3,4,5)P3 alone (30 μM); FIG. 1C
Method: This assay was essentially as for ROS production, except pure, lipid-modified EE-Rac1 (30-50 nM final concentration) was added to the cytosol, and GTP, GTPγS, NADPH, FAD and luminol omitted. Three min after mixing membrane and cytosol fractions, [α^32P]-GTP (20 μCi per sample) was added. Four min later, the reaction was stopped and EE-Rac1 pulled down using anti-EE antibody coupled to protein G sepharose. The total dpm on EE-Rac1 were quantified by scintillation counting (blanks without EE-Rac1 were subtracted).

[7] = system: neutrophil cytosol and low-density membranes (ROS formation); experiment: ROS formation assay with neutrophil cytosol and membrane fractions; format: biochemical, pig; details: added as liposomes, biological diastereoisomer; FIG. 1B
Method: Neutrophil-enriched leukocytes were isolated from pigs' blood, sonicated in 0.25 M sucrose, 0.1 M KCl, 50 mM Hepes/NaOH pH 7.2 (4° C.), 1 mM DTT, 2 mM EGTA, 0.1 mM PMSF and 1× antiproteases (20 μg/ml of each antipain, aprotinin, pepstatin and leupetin) and centrifuged (100,000×g, 1 h, 4° C.) to yield cytosol and light membrane fractions (4.5 mg/ml protein, collected between 0.60 and 1.35 M sucrose and washed in sonication buffer). Light membranes (3 μl) were pre-mixed with Gβγ subunits, p101/p110γ-PI3K and/or N17-Rac (or boiled controls) in 6 μl containing 5 mM ATP, 8 mM MgCl2, 20 mM Hepes/NaOH pH 7.5 (4° C.), 2 mM EGTA, 10 mM β-glycerophosphate, 0.1 mM ortho-vanadate, 0.1 M KCl, 1 mM DTT, 0.01% (w/v) Na azide. After 25 min on ice, 20 μl was added containing 15 μl cytosol and 1 mM MgGTP, 20 μM FAD, 400 μM NADPH and 200 μM luminol. After 8 min at RT, single photon counts (SPC) per 0.1 min were quantitated in a scintillation counter at intervals of 3-5 min for up to 20 min (blanks without cytosol were subtracted). When lipids were added, they were preincubated with the membranes, and 10 μM GTPγS replaced MgGTP. Where wortmannin was added, it was preincubated with both cytosol and membrane fractions for 15 min on ice. Where EE-Rac1 was added, it was preloaded with different guanine nucleotides at a 5-fold excess over bound GDP.

Chain of P-Rex1 (Q8TCU6 whole entry A1118T/K1340E): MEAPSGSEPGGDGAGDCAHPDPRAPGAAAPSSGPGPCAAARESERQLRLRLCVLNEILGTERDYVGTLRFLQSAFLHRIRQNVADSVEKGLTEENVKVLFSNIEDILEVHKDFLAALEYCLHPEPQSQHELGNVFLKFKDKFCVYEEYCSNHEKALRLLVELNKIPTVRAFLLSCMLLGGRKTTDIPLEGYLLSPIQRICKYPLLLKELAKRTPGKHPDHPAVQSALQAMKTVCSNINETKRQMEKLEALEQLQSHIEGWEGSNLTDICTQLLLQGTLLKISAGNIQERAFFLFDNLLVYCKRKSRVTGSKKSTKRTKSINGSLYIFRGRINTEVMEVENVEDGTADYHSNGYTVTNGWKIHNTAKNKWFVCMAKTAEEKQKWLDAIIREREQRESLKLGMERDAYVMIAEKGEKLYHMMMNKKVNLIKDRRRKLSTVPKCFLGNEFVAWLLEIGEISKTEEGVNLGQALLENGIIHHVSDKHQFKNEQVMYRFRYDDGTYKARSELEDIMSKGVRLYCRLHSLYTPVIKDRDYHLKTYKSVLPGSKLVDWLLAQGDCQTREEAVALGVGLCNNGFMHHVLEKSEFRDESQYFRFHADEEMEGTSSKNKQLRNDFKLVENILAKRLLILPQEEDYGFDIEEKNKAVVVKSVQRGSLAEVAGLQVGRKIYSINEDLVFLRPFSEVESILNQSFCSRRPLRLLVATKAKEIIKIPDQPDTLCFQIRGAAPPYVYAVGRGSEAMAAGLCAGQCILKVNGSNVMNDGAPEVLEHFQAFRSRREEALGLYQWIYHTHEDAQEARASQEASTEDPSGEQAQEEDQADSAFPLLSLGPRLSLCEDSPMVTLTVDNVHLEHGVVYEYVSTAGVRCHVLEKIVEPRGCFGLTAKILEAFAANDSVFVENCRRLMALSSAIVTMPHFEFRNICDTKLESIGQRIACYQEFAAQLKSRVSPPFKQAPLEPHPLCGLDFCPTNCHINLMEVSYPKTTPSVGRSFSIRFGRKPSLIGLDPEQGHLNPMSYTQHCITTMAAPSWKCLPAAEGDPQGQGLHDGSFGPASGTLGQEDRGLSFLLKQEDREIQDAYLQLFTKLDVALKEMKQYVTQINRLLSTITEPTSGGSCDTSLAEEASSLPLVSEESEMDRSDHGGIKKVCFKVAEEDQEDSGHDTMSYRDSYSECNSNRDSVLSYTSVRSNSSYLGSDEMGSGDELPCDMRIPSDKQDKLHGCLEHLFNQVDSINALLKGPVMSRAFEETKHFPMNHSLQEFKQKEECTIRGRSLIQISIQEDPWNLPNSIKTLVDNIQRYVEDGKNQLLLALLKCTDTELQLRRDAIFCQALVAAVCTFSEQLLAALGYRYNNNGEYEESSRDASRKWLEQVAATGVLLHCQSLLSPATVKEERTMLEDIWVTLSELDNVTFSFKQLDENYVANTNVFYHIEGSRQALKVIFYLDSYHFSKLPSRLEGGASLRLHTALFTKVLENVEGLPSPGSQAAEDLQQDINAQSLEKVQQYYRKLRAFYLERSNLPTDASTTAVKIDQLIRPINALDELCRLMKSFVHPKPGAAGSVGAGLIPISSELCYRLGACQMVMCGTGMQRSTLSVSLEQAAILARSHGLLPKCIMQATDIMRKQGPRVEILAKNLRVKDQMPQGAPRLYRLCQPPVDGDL
T1 sequence (Q8TCU6 whole entry A1118T/K1340E): as above

PtdIns(3,4)P2
activation of P-Rex1 Rac-GEF activity by phosphoinositide ([1]; phosphoinositides compared at 10 μM, FIG. 5B): weak activation

PtdIns(3,5)P2
P-Rex1 binding to phospholipid vesicles containing the phosphoinositide [2]: only weakly

C[C@H](CCC(=O)O)[C@H]1CC[C@H]2[C@@H]3[C@H](O)C[C@@H]4C[C@H](O)CC[C@]4(C)[C@H]3C[C@H](O)[C@]12C [cholate]
effect on P-Rex1 Rac-GEF activity in vitro ([1]; FIG. 5D, 5E): strongly inhibits

PtdIns(4,5)P2
P-Rex1 binding to phospholipid vesicles containing the phosphoinositide [2]: only weakly

PtdIns3P
P-Rex1 binding to phospholipid vesicles containing the phosphoinositide [2]: only weakly

P-Rex1: novel 185 kD PtdIns(3,4,5)P3- and Gβγ-regulated guanine-nucleotide exchange factor for Rac (SEQ ID NO:1)
protein phosphatase activity [3]: no lipid or protein phosphatase activity | lipid phosphatase activity [4]: no lipid or protein phosphatase activity | myc-positive cells with strongly exaggerated lamellipodia ('fried eggs', V12-Rac-like phenotype) ([5]; serum-starved, unstimulated cells transiently expressing myc-P-Rex1): around 30%

phosphatidylinositol(3,4,5)P3 [PtdIns(3,4,5)P3]
activation of Rac1 [6]: stimulated activation | EC50 ([1]; liposomes with PtdIns(3,4,5)P3 dose response, EE-Rac1, FIG. 5A, read-out: 50% maximal effect on Rac-GEF activity of P-Rex1): 300 nM | P-Rex1 binding to phospholipid vesicles containing the phosphoinositide [2]: substantially augmented | activation of ROS formation [7]: potently activate

PtdIns4P
P-Rex1 binding to phospholipid vesicles containing the phosphoinositide [2]: only weakly

PDGF
P-Rex1-positive cells exhibiting the V12-Rac-like phenotype ([5]; PDGF-stimulation for 5 min): 80%

PtdIns5P
P-Rex1 binding to phospholipid vesicles containing the phosphoinositide [2]: only weakly
